Assay results from patent US20230151034A1 (COCRYSTAL PHARMA, INC., priority 2020, published 2023).
Like-named read-outs stand apart in the source and are kept apart here.

How the values were obtained:
[1] = target: Norwalk GGI.1 Norovirus protease (Norovirus, UniProt Q83883); test: Noro-Norwalk FRET protease assay (Norwalk GGI.1); format: biochemical, Norwalk virus
Description: Viral protease assays: The antiviral activities of inhibitors were determined by FRET (Fluorescence Resonance Energy Transfer) assay. Purified viral protease was incubated with the protease substrate peptide (Edans-DFHLQ/GP-Dabcyl) and inhibitor, and IC50 values were subsequently determined by the fluorescence signals.
The Noro-Norwalk FRET protease assay was performed in 50 mM HEPES-Na pH 8, 50 mM NaCl, 0.4 mM EDTA, 4% glycerol, and 6 mM DTT. A self-quenching peptide substrate [5-FAM]-[…]-[TAMRA] was custom synthesized by Anaspec. Compounds were diluted in 3-fold serial dilutions to final concentrations of 200 μM to 10.2 nM. Noro protease was added to a final concentration of 1-7 μM, depending on the enzyme activity level, and the peptide substrate was added to a final concentration of 10 μM. The assay was incubated 90 minutes at 37° C. and read in a Perkin Elmer Envision with excitation at 473 nm and emission measurement at 519 nm.

[2] = target: HuNV GGII.4 Norovirus protease (Norovirus GII.4 (human norovirus genogroup II genotype 4), UniProt P54634); test: Norovirus protease FRET assay (HuNV GGII.4); format: biochemical
Sequence of HuNV GGII.4 Norovirus protease (P54634 1009-1189): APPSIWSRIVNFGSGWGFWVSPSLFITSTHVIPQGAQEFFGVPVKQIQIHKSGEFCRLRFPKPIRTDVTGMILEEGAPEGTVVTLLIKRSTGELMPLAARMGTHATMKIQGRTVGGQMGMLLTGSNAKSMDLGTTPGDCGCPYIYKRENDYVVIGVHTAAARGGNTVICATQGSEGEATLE

[3] = target: SARS2 protease (Severe acute respiratory syndrome coronavirus 2, UniProt P0DTD1); test: SARS-CoV-2 protease inhibition assay (SARS2 FRET protease assay); format: biochemical
Method in brief: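 SARS-CoV-2 protease (25 nM) was incubated for 30 min at 30 °C with 1.3 μM quenched 5-FAM/TAMRA peptide substrate and compound (3-fold dilutions, 20 μM–1.0 nM). The buffer was 20 mM HEPES-Na pH 7, 120 mM NaCl, 0.4 mM EDTA, 0.01% Triton, 5% glycerol and 4 mM DTT. Fluorescence was read at ex 473 and em 519 nm, and IC50 was derived.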

[4] = Table C, FRET protease assay, read-out: Norwalk GGI.1 IC50
[5] = Table C, FRET protease assay, read-out: HuNV GGII.4 IC50
[6] = Table E, SARS-CoV-2 protease inhibition, read-out: IC50

Sequence of Norwalk GGI.1 Norovirus protease (Q83883 1101-1281): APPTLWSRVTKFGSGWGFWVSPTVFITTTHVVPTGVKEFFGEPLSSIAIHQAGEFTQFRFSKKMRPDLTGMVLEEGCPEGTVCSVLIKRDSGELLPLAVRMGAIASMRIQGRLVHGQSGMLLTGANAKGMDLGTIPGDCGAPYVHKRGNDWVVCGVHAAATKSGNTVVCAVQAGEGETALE

Structure (SMILES): CN(CCc1ccccc1Cl)C(=O)CC[C@@H](C=O)NC(=O)[C@H](CC1CCCCC1)NC(=O)OCc1cccc(Cl)c1 [Compound A105, 3-Chlorobenzyl ((S)-1-(((S)-5-((2-chlorophenethyl)(methyl)amino)-1,5-dioxopentan-2-yl)amino)-3-cyclohexyl-1-oxopropan-2-yl)carbamate]
- IC50 [1, 4]: 28.2 µM
- IC50 [2, 5]: 155 µM
- IC50 [3, 6]: > 200 µM

Structure (SMILES): CCCC1CCCC/C=C/CC(C(=O)N(C)Cc2ccc(OC)cc2OC)C[C@@H](C(O)P(=O)(OCC)OCC)NC(=O)[C@H](CC(C)C)NC1=O (stereo partly drawn) [Compound B25, Diethyl (((2S,5S,E)-7-((2,4-dimethoxybenzyl)(methyl)carbamoyl)-2-isobutyl-3,16-dioxo-15-propyl-1,4-diazacyclohexadec-9-en-5-yl)(hydroxy)methyl)phosphonate]
- IC50 [1]: 177 µM
- IC50 [2]: 177 µM
- IC50 [3]: > 200 µM

Structure (SMILES): CCCCCN(C)C(=O)CC[C@@H](C=O)NC(=O)[C@H](CC1CCCCC1)NC(=O)OCc1cccc(Cl)c1 [Compound A7, 3-chlorobenzyl ((S)-3-cyclohexyl-1-(((S)-5-(methyl(pentyl)amino)-1,5-dioxopentan-2-yl)amino)-1-oxopropan-2-yl)carbamate]
- IC50 [1, 4]: 1.6 µM
- IC50 [2, 5]: 11.1 µM
- IC50 [3, 6]: 3.2 µM

Structure (SMILES): CC(CN(C)C(=O)CC[C@@H](C=O)NC(=O)[C@H](CC1CCCCC1)NC(=O)OCc1cccc(Cl)c1)c1ccccc1 (stereo in doubt) [Compound A49, 3-Chlorobenzyl ((2S)-3-cyclohexyl-1-(((2S)-5-(methyl(2-phenylpropyl)amino)-1,5-dioxopentan-2-yl)amino)-1-oxopropan-2-yl)carbamate]
- IC50 [1, 4]: 15 µM
- IC50 [2, 5]: 76.7 µM
- IC50 [3, 6]: > 200 µM

Structure (SMILES): CN(CCc1ccccc1)C(=O)CC[C@@H](C=O)NC(=O)[C@H](CC1CCCCC1)NC(=O)OCc1cccc(Cl)c1 (stereo in doubt) [Compound A36, 3-chlorobenzyl ((S)-3-cyclohexyl-1-(((S)-5-(methyl(phenethyl)amino)-1,5-dioxopentan-2-yl)amino)-1-oxopropan-2-yl)carbamate]
- IC50 [1, 4]: 5.2 µM
- IC50 [2, 5]: 26.9 µM
- IC50 [3, 6]: > 200 µM

Structure (SMILES): CCS(=O)(=O)NCCN(C)C(=O)CC[C@@H](C=O)NC(=O)[C@H](CC1CCCCC1)NC(=O)OCc1cccc(Cl)c1 (stereo in doubt) [Compound A38, 3-Chlorobenzyl ((S)-3-cyclohexyl-1-(((S)-5-((2-(ethylsulfonamido)ethyl)(methyl)amino)-1,5-dioxopentan-2-yl)amino)-1-oxopropan-2-yl)carbamate]
- IC50 [1, 4]: 10.1 µM
- IC50 [2, 5]: 30.6 µM
- IC50 [3, 6]: 36 µM

Structure (SMILES): CON(C)C(=O)[C@H](CCC(=O)N1CCCC(c2ccccc2)C1)NC(=O)[C@H](CC1CCCCC1)NC(=O)OCc1cccc(Cl)c1 (stereo in doubt) [Compound A43, 3-chlorobenzyl ((2S)-3-cyclohexyl-1-(((2S)-1-(methoxy(methyl)amino)-1,5-dioxo-5-(3-phenylpiperidin-1-yl)pentan-2-yl)amino)-1-oxopropan-2-yl)carbamate]
- IC50 [1, 4]: 135 µM
- IC50 [2, 5]: > 200 µM
- IC50 [3, 6]: 185 µM

Structure (SMILES): CCOP(=O)(OCC)C(O)[C@H](CCC(=O)N(C)CCNS(=O)(=O)CC)NC(=O)[C@H](CC1CCCCC1)NC(=O)OCc1cccc(Cl)c1 (stereo partly drawn) [Compound A22]
- IC50 [1, 4]: 143 µM
- IC50 [2, 5]: > 200 µM
- IC50 [3, 6]: 2.3 µM

Structure (SMILES): CCOP(=O)(OCC)C(O)[C@H](CCC(=O)N1CCOC(c2ccccc2)C1)NC(=O)[C@H](CC1CCCCC1)NC(=O)OCc1cccc(Cl)c1 (stereo partly drawn) [Compound A54, 3-Chlorobenzyl ((2S)-3-cyclohexyl-1-(((2S)-1-(diethoxyphosphoryl)-1-hydroxy-5-oxo-5-(2-phenylmorpholino)pentan-2-yl)amino)-1-oxopropan-2-yl)carbamate]
- IC50 [1, 4]: 36.3 µM
- IC50 [2, 5]: 161 µM
- IC50 [3, 6]: 19 µM

Structure (SMILES): CCOC(=O)NCCN(C)C(=O)CC[C@@H](C=O)NC(=O)[C@H](CC1CCCCC1)NC(=O)OCc1cccc(Cl)c1 (stereo in doubt) [Compound A44, Ethyl ((5S,8S)-1-(3-chlorophenyl)-5-(cyclohexylmethyl)-8-formyl-12-methyl-3,6,11-trioxo-2-oxa-4,7,12-triazatetradecan-14-yl)carbamate]
- IC50 [1, 4]: 10.7 µM
- IC50 [2, 5]: 28.6 µM
- IC50 [3, 6]: > 200 µM

Structure (SMILES): CCCCCCCC1CCC/C=C/CC(C(=O)N(C)C)C[C@@H](C=O)NC(=O)C(CC(C)C)NC1=O (stereo partly drawn) [Compound B4]
- IC50 ([1]; Table D, FRET protease assay, read-out: Norwalk GGI.1 IC50): 149 µM
- IC50 ([2]; Table D, FRET protease assay, read-out: HuNV GGII.4 IC50): 149 µM
- IC50 [3, 6]: 156 µM

Structure (SMILES): CCOP(=O)(OCC)C(O)[C@H](CCC(=O)N(C)Cc1ccccc1)NC(=O)[C@H](CC1CCCCC1)NC(=O)OCc1cccc(Cl)c1 (stereo partly drawn) [Compound A13, 3-Chlorobenzyl ((2S)-1-(((2S)-5-(benzyl (methyl)amino)-1-(diethoxyphosphoryl)-1-hydroxy-5-oxopentan-2-yl)amino)-3-cyclohexyl-1-oxopropan-2-yl) carbamate]
- IC50 [1, 4]: 166 µM
- IC50 [2, 5]: > 200 µM
- IC50 [3, 6]: > 200 µM

Structure (SMILES): CN(Cc1ccccc1)C(=O)CC[C@@H](C=O)NC(=O)[C@H](CC1CCCCC1)NC(=O)OCc1cccc(Cl)c1 [Compound A18, 3-Chlorobenzyl ((S)-1-(((S)-5-(benzyl (methyl)amino)-1,5-dioxopentan-2-yl)amino)-3-cyclohexyl-1-oxopropan-2-yl) carbamate]
- IC50 [1, 4]: 2.7 µM
- IC50 [2, 5]: 14.5 µM
- IC50 [3, 6]: > 200 µM

Structure (SMILES): CN(CCc1cccc(Cl)c1)C(=O)CC[C@@H](CO)NC(=O)[C@H](CC1CCCCC1)NC(=O)OCc1cccc(Cl)c1 [Compound A24, 3-Chlorobenzyl ((S)-1-(((S)-5-((3-chlorophenethyl)(methyl)amino)-1-hydroxy-5-oxopentan-2-yl)amino)-3-cyclohexyl-1-oxopropan-2-yl)carbamate]
- IC50 [1, 4]: > 200 µM
- IC50 [2, 5]: 123 µM
- IC50 [3, 6]: > 200 µM

Structure (SMILES): CCOCCN(C)C(=O)CC[C@@H](C=O)NC(=O)[C@H](CC1CCCCC1)NC(=O)OCc1cccc(Cl)c1 [Compound A10, 3-chlorobenzyl ((S)-3-cyclohexyl-1-(((S)-5-((2-ethoxyethyl)(methyl)amino)-1,5-dioxopentan-2-yl)amino)-1-oxopropan-2-yl)carbamate]
- IC50 [1, 4]: 3.6 µM
- IC50 [2, 5]: 16.9 µM
- IC50 [3, 6]: 0.98 µM

Structure (SMILES): O=C[C@H](CCC(=O)N1CCCCc2ccccc21)NC(=O)[C@H](CC1CCCCC1)NC(=O)OCc1cccc(Cl)c1 [Compound A107, 3-Chlorobenzyl ((S)-3-cyclohexyl-1-(((S)-1,5-dioxo-5-(2,3,4,5-tetrahydro-1H-benzo[b]azepin-1-yl)pentan-2-yl)amino)-1-oxopropan-2-yl)carbamate]
- IC50 [1, 4]: 39.6 µM
- IC50 [2, 5]: 200 µM

Structure (SMILES): CN(CCc1ccccc1)C(=O)CC[C@H](NC(=O)[C@H](CC1CCCCC1)NC(=O)OCc1cccc(Cl)c1)C(O)S(=O)(=O)O (stereo in doubt) [Compound A114, Sodium (2S)-2-((S)-2-((((3-chlorobenzyl)oxy)carbonyl)amino)-3-cyclohexylpropanamido)-1-hydroxy-5-(methyl (phenethyl)amino)-5-oxopentane-1-sulfonate]
- IC50 [1, 4]: 5.2 µM
- IC50 [2, 5]: 12.1 µM

Structure (SMILES): O=C[C@H](CCC(=O)N1CCc2ccccc2CC1)NC(=O)[C@H](CC1CCCCC1)NC(=O)OCc1cccc(Cl)c1 (stereo in doubt) [Compound A118, 3-Chlorobenzyl ((S)-3-cyclohexyl-1-(((S)-1,5-dioxo-5-(1,2,4,5-tetrahydro-3H-benzo[d]azepin-3-yl)pentan-2-yl)amino)-1-oxopropan-2-yl)carbamate]
- IC50 [1, 4]: 6.6 µM
- IC50 [2, 5]: 74.2 µM
